Measured values reported in patent publication US20120253036A1, “AGENT FOR TREATING FIBROMYALGIA” (priority 2009, published 2012).

Tests used:
[1] = system: disease animal model of fibromyalgia; experiment: Antagonism by 5-HT2C receptor antagonist SB242084 of the action of lorcaserin on reserpine-lowered muscle tenderness threshold; format: in vivo, Sprague-Dawley rats
Protocol: Thirty male Sprague-Dawley rats (Japan SLC) were used. […] The other 6 rats were not administered with reserpine and provided for the experiment as a healthy control. The drug efficacy was evaluated 5 days after the final administration of reserpine.
Twenty four reserpine-administered rats were divided into four groups (n=6/group), and the drug was administered to the respective groups in the following manner.
Group 1: 10% β cyclodextrin (vehicle of SB242084)+distilled water (vehicle of lorcaserin)
Group 2: 10% β cyclodextrin+lorcaserin at 3 mg/kg
Group 3: SB242084 at 0.1 mg/kg+lorcaserin at 3 mg/kg
Group 4: SB242084 at 1 mg/kg+lorcaserin at 3 mg/kg SB242084 or the vehicle thereof was administered by intraperitoneal administration, and lorcaserin or the vehicle thereof was orally administered. […] The muscle tenderness threshold was measured 60 minutes after lorcaserin or the vehicle thereof was administered. For the 6 healthy rats, only the muscle tenderness threshold was measured without administering the drug.
All measured values were indicated as an average±standard error. […] A significance level (P) less than 5% was determined as statistical significance (P<0.001 was indicated as ### in the drawing). […] A significance level (P) less than 5% was determined as statistical significance (P<0.001 was indicated as *** in the drawing).

[2] = system: disease animal model of fibromyalgia; experiment: Effect of test drug on lowering of muscle tenderness threshold induced by repeated reserpine administration; format: in vivo, Sprague-Dawley rats; conditions: for effect on the lowering of the muscle tenderness threshold induced by reserpine: male rats; for statistical significance of the effect on muscle tenderness threshold vs vehicle: two way ANOVA and Bonferroni
Protocol: (§1) The muscle tenderness threshold was measured according to the method of Schafers et al (Schafers M et al, Pain, 104, 579-588, 2003). A pressure stimulus gradually increasing up to 250 g was applied to the gastrocnemius of the right rear foot of the rat. […] The measurement was performed for three times for each point in time, and the average thereof was taken as a measured value. The cutaneous nociception threshold was measured according to the method of Chaplan et al (Chaplan et al., J Neurosci Methods, 53, 55-63, 1994). The measurement was performed using a series of von Frey filaments differing in thickness, which made it possible to apply a constant pressure. The rats were adapted to a cage for measurement having a wire mesh bottom, and then von Frey filaments (0.42 g, 0.74 g, 1.2 g, 2.1 g, 3.5 g, 6.0 g, 9.3 g, and 15.8 g) were applied to the plantar surface of a right rear foot of the rat until the withdrawal response was caused in the right rear foot or until 6 seconds elapsed without the response. The von Frey filament was applied using an up and down method. That is, a filament having about a medium thickness was applied initially, and when the withdrawal response was observed, a filament having a thickness which is one level lower than the initial filament was applied, and when the response was not observed, a filament having a thickness which is one level higher than the initial filament was applied. The cutaneous nociception threshold at the respective points in time was calculated as a threshold (g) of a foot withdrawal response by using a calculation formula reported by Chaplan et al (Chaplan et al. described above). The influence of reserpine on the muscle tenderness threshold and the threshold of cutaneous nociception was examined according to the following protocol. 24 rats were used for male and female rats respectively. The muscle tenderness threshold and the cutaneous nociception threshold before the reserpine administration (base line) were measured, and then the rats were assigned to any of a vehicle (0.5% aqueous acetic acid) group, a 0.1 mg/kg reserpine group, a 0.3 mg/kg group, and a 1 mg/kg group based on the dose of reserpine (6 rats per group). A vehicle or reserpine was subcutaneously administered to the back of rats of the respective groups once a day for three days. The volume of the vehicle or reserpine was set to 1 ml per a weight of a rat of 1 kg for all groups. On the first, third, fifth, seventh, tenth, fourteenth, and twenty-first days after the final administration of the vehicle or reserpine, the muscle tenderness threshold and the cutaneous nociception threshold were measured for the respective rats.
Male Sprague-Dawley rats (Japan SLC, Hamamatsu, Japan) were used. Thirty rats were used for each drug. As shown in Reference Example 1, reserpine was repeatedly administered at 1 mg/kg once a day for 3 days for 24 rats, thereby causing the lowering of the muscle tenderness threshold and the cutaneous nociception threshold. The other 6 rats were not administered with reserpine and provided for the experiment as a healthy control.
The drug efficacy was evaluated 5 days after the final administration of reserpine for all groups.
In evaluating the respective test drugs (5-HT2C receptor agonists), the muscle tenderness threshold of the rats (24 reserpine-administered rats and 6 healthy rats) before the administration of the test drug was initially measured. The 24 reserpine-administered rats were assigned to 4 groups according to the dose of the test drug. For YM348 or a vehicle thereof, the muscle tenderness threshold was measured 30, 60, and 120 minutes after the administration. For lorcaserin or a vehicle thereof, the muscle tenderness threshold was measured 60, 120, and 240 minutes after the administration. For vabicaserin or a vehicle thereof, the muscle tenderness threshold was measured 30, 60, 120, and 240 minutes after the administration. […]

[3] = system: disease animal model of fibromyalgia; experiment: Effect of drug on reserpine-induced lowering of cutaneous nociception threshold; format: in vivo, Sprague-Dawley rats; conditions: 5 days after final reserpine; up to a dose of 10 mg/kg
Protocol: The cutaneous nociception threshold was measured according to the method of Chaplan et al (Chaplan et al., J Neurosci Methods, 53, 55-63, 1994). The measurement was performed using a series of von Frey filaments differing in thickness, which made it possible to apply a constant pressure. The rats were adapted to a cage for measurement having a wire mesh bottom, and then von Frey filaments (0.42 g, 0.74 g, 1.2 g, 2.1 g, 3.5 g, 6.0 g, 9.3 g, and 15.8 g) were applied to the plantar surface of a right rear foot of the rat until the withdrawal response was caused in the right rear foot or until 6 seconds elapsed without the response. The von Frey filament was applied using an up and down method. […] The cutaneous nociception threshold at the respective points in time was calculated as a threshold (g) of a foot withdrawal response by using a calculation formula reported by Chaplan et al (Chaplan et al. described above).
In addition, 5 days after the final administration of reserpine, the effect of diclofenac which is a non-steroidal anti-inflammatory drug on the reserpine-induced lowering of the muscle tenderness threshold and the lowering of cutaneous nociception threshold was measured.

[4] = system: patients with fibromyalgia; conditions: cited from earlier work; for score of pain symptoms of patients with fibromyalgia compared to a placebo group: Non-Patent Documents 7 to 9; for effectiveness for treating patients with fibromyalgia: literature (Yunus 1989; Goldenberg 1986)
[5] = system: Male and female Sprague-Dawley rats; experiment: Influence of repeated reserpine administration on muscle tenderness threshold; format: in vivo; conditions: for time after final administration for which muscle tenderness threshold was statistically significantly lower than vehicle: 1 mg/kg group
Protocol: (§2) Male and female Sprague-Dawley rats (Japan SLC, Hamamatsu, Japan) were used.
as §1, with “The influence of reserpine on the muscle tenderness threshold and the threshold of cutaneous nociception was examined according to the following protocol. 24 rats were used for male and female rats respectively.” left out, “A vehicle or reserpine was subcutaneously administered to the back of rats of the respective groups once a day for three days. The volume of the vehicle or reserpine was set to 1 ml per a weight of a rat of 1 kg for all groups.” left out
(§3) All measured values were indicated as an average±standard error. The statistical significant difference in the measured value at the respective points in time between the reserpine-administered group and the vehicle-administered group was verified by two way ANOVA and a Bonferroni method. A significance level (P) less than 5% was determined as statistical significance (P<0.05 was indicated as * in the drawings).

[6] = system: Male and female Sprague-Dawley rats; experiment: Influence of repeated reserpine administration on cutaneous nociception threshold (von Frey); format: in vivo; conditions: for time after final administration for which cutaneous nociception threshold was statistically significantly lower than vehicle: 1 mg/kg group
Protocol: as §2
as §1, with “The influence of reserpine on the muscle tenderness threshold and the threshold of cutaneous nociception was examined according to the following protocol. 24 rats were used for male and female rats respectively.” left out, “A vehicle or reserpine was subcutaneously administered to the back of rats of the respective groups once a day for three days. The volume of the vehicle or reserpine was set to 1 ml per a weight of a rat of 1 kg for all groups.” left out
as §3

[7] = system: Male Sprague-Dawley rats; experiment: Forced swimming test after repeated reserpine administration (immobility time); format: in vivo; conditions: 1 mg/kg s.c. once a day for 3 days
Protocol: Male Sprague-Dawley rats (7-week old, Japan SLC, Hamamatsu, Japan) were used as animals. A forced swimming test was performed by modifying the method of Porsolt (1977) et al in the following manner. Soft wires including a magnet (a diameter of 1 mm and a length of 3 mm) were mounted on both the forelimbs of the animal, and the animals were caused to swim one by one in a cylindrical plastic water tank (a diameter of 20 cm and a height of 45 cm) filled with water (24±1° C.) up to 30 cm depth. […] Each forced swimming test includes a pretest session (15 minutes of swimming) and a test session (5 minutes of swimming) 24 hours after the pretest session, and the immobility time was measured in the test session. […] All of the measured values were indicated as an average±standard error. The statistical significant difference in the measured value at the respective test schedules between the reserpine-administered group and the vehicle-administered group was verified by a Student's t-test. A significance level (P) less than 5% was determined as statistical significance (P<0.05 was indicated as * in the drawings).

[8] = 0.1, 0.3, 1 mg/kg s.c. once a day for three days, male and female rats, two way ANOVA

Cc1cc2c(cc1Cl)N(C(=O)Nc1ccc(Oc3cccnc3C)nc1)CC2 [SB242084]
antagonistic action against the action of lorcaserin on muscle tenderness threshold ([1]; SB242084 0.1 and 1 mg/kg i.p. 15 min before lorcaserin 3 mg/kg oral, 60 min, Dunnett's test): statistically significant antagonistic action in a dose dependent manner

CCc1cc2c(ccc3cnn(C[C@H](C)N)c32)o1 [YM348, (S)-2-(7-ethyl-1H-furo[2,3-g]indazol-1-yl)-1-methylethylamine]
effect on the lowering of the muscle tenderness threshold induced by reserpine ([2]; 5 days after final reserpine (1 mg/kg s.c. x3 days), oral 0.03, 0.1, 0.3 mg/kg, 30, 60, 120 min after administration): restored the lowering of the muscle tenderness threshold induced by reserpine in a dose dependent manner | statistical significance of the effect on muscle tenderness threshold vs vehicle ([2]; oral, at a dose of 0.1 mg/kg or 0.3 mg/kg): statistically significant

O=C(O)Cc1ccccc1Nc1c(Cl)cccc1Cl [diclofenac]
effect on the reserpine-induced lowering of cutaneous nociception threshold [3]: not restored | effect on the reserpine-induced lowering of the muscle tenderness threshold ([2]; 5 days after final reserpine, up to a dose of 10 mg/kg): not restored

CNCC[C@H](Oc1cccc2ccccc12)c1cccs1 [duloxetine]
score of pain symptoms of patients with fibromyalgia compared to a placebo group [4]: statistically significantly reduces the score of pain symptoms

CC(C)Cc1ccc(C(C)C(=O)O)cc1 (stereo not drawn) [ibuprofen]
effectiveness for treating patients with fibromyalgia [4]: not significantly effective

C[C@H]1CNCCc2ccc(Cl)cc21.Cl [lorcaserin, (1R)-8-chloro-1-methyl-2,3,4,5-tetrahydro-1H-3-benzazepine]
effect on the lowering of the muscle tenderness threshold induced by reserpine ([2]; 5 days after final reserpine, oral 0.3, 1, 3 mg/kg, 60, 120, 240 min after administration): restored the lowering of the muscle tenderness threshold induced by reserpine in a dose dependent manner | statistical significance of the effect on muscle tenderness threshold vs vehicle ([2]; oral, at a dose of 1 mg/kg or 3 mg/kg): statistically significant | effect on the lowering of the muscle tenderness threshold induced by reserpine vs vehicle group (v+v) ([1]; lorcaserin 3 mg/kg oral + 10% β cyclodextrin i.p., 60 min after administration, Student's t-test): statistically significantly restored the lowering of the muscle tenderness threshold induced by reserpine

COc1ccc2cc([C@H](C)C(=O)O)ccc2c1 [naproxen]
effectiveness for treating patients with fibromyalgia [4]: not significantly effective

CC(C)C[C@H](CN)CC(=O)O [pregabalin]
score of pain symptoms of patients with fibromyalgia compared to a placebo group [4]: statistically significantly reduces the score of pain symptoms

COC(=O)[C@H]1[C@H]2C[C@@H]3c4[nH]c5cc(OC)ccc5c4CCN3C[C@H]2C[C@@H](OC(=O)c2cc(OC)c(OC)c(OC)c2)[C@@H]1OC [reserpine]
time after final administration for which muscle tenderness threshold was statistically significantly lower than vehicle ([5]; female rats): 7 days | time after final administration for which muscle tenderness threshold was statistically significantly lower than vehicle ([5]; male rats): 10 days | influence on muscle tenderness threshold ([5]; 1 mg/kg reserpine group): markedly lowered | influence on muscle tenderness threshold [5, 8]: significantly lowered the muscle tenderness threshold | time after final administration for which cutaneous nociception threshold was statistically significantly lower than vehicle ([6]; female rats): 14 days | time after final administration for which cutaneous nociception threshold was statistically significantly lower than vehicle ([6]; male rats): 21 days | influence on cutaneous nociception threshold ([6]; 1 mg/kg reserpine group): markedly lowered | influence on cutaneous nociception threshold [6, 8]: significantly lowered the cutaneous nociception threshold | increase in the immobility time in forced swimming test ([7]; first day after final administration (P=0.625)): not confirmed | increase in the immobility time in forced swimming test ([7]; third, fifth, seventh and fourteenth days after final administration (P=0.0007, 0.004, <0.0001, 0.0008)): significant increase in the immobility time

Cl.c1cc2c3c(c1)[C@H]1CCC[C@H]1CN3CCNC2 [vabicaserin, (−)-(9aR,12aS)-4,5,6,7,9,9a,10,11,12,12a-decahydrocyclopenta[c][1,4]diazepino[6,7,1-ij]quinoline]
statistical significance of the effect on muscle tenderness threshold vs vehicle ([2]; dorsal subcutaneous, at a dose of 1 mg/kg or 3 mg/kg): statistically significant | effect on the lowering of the muscle tenderness threshold induced by reserpine ([2]; 5 days after final reserpine, dorsal subcutaneous 0.3, 1, 3 mg/kg, 30, 60, 120, 240 min after administration): restored the lowering of the muscle tenderness threshold induced by reserpine in a dose dependent manner
